Tested on: p-DNA-PKcs (S2056)
Assay: Immunofluorescence of p-DNA-PKcs (S2056) nuclear foci in early on-treatment PDX tumors
Type: in vivo, NSG mice
Conditions: with or without MEKi; Mel_PDX1, 11 days; FIG. 13F
From the text: FIGS. 13A-13H. In vivo impacts of DNA-PKi when combined with MAPKi. FIGS. 13A and 13B: Long-term follow-up of tumor volumes (13A, BRAFi+MEKi, n=5 tumors; BRAFi+MEKi+DNA-PKi, n=6 tumors) (13B, MEKi, n=6 tumors; MEKi+DNAP-PKi, n=6 tumors) and average mice body weights for 13A and 13B. Related to experiments in FIGS. 7B and 7E, respectively. FIGS. 13C and 13D, Tumor volumes (mean±SEM) of two examples of tumor models treated short-term with vehicle or indicated single versus combined agents. Inhibitors and dosages are identical to those in FIGS. 7C and 7E, respectively. The numbers of tumors and their sizes are shown in the photographs (right) taken at the times of tumor harvest (end points). FIGS. 13E to 13G: Immunofluorescence of p-ERK (13E), p-DNA-PKcs (S2056) (13F), or γH2AX (13G) levels in Mel_PDX1 tumor model, treated with vehicle or indicated single versus combined agents for 11 days (shown in 13C). DAPI, nuclear stain. Scale bar, 50 μm (13E) and 20 μm (13F and 13G). Representative images shown for two tumors analyzed per group. Quantification of p-DNA-PKcs signals obtained by taking the average of positively stained foci per nucleus (13F, representative of 4 fields). Quantification of γH2AX signals analyzed either by percentage of cells with γH2AX foci or percentage of cells with greater than 5 γH2AX foci (13G, representative of 4 fields). […]

O=c1cc(N2CCOCC2)oc2c1ccc1ccccc12 [NU7026]
nuclear p-DNA-PKCS foci: suppressed nuclear p-DNA-PKCS foci
